We go through one molecule from US20220193076A1, “METHODS OF TREATING BREAST CANCER WITH TUCATINIB” (Seagen Inc., priority 2019, published 2022).

As a reminder, the IC50 is the concentration that gives 50% inhibition.

Data set [1] deals with CYP3A4 and CYP2C8. Description: Example 2 Part B: effect of inducer rifampin on PK of tucatinib. The format is in vivo, human. To be noted: tucatinib 300 mg single dose in combination with rifampin vs tucatinib alone. The procedure:
They were discharged on Day 12 after completion of the in-patient assessments. […] On Day 3 through Day 11, each subject received single oral doses of 600 mg of rifampin once daily (QD). On Day 10, each subject received a single oral dose of 300 mg of tucatinib. […] Other noncompartmental PK parameters may be reported. Additionally, blood samples were collected for determination of trough levels of rifampin prior to morning dosing on the days indicated in FIG. 6.

Data set [2] addresses T1, breast cancer resistance protein (BCRP) (Homo sapiens, UniProt Q9UNQ0).
T1 sequence (Q9UNQ0 1-655): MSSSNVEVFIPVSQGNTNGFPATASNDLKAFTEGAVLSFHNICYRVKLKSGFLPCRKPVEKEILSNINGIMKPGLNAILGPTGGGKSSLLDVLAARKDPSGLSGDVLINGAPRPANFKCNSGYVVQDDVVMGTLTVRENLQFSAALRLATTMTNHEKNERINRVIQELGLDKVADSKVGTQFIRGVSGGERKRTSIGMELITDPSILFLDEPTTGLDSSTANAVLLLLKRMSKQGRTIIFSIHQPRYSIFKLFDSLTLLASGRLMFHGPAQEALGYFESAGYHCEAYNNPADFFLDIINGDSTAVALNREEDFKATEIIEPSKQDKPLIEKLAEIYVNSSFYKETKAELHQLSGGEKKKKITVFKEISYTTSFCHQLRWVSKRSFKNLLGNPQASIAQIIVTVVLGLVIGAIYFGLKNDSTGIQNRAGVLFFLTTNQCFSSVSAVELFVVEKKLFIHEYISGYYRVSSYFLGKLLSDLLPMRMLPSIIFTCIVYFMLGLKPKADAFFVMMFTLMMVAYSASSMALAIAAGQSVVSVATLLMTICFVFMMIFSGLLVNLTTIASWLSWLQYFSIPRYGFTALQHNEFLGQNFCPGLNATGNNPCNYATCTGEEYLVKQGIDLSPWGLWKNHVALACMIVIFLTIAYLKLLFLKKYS
Description: In vitro inhibition of BCRP activity. The format is in vitro ADME.

Data set [3] concerns the target MATE2K (Homo sapiens, UniProt Q86VL8). Briefly: In vitro inhibition of MATE2K transporter. It counts as in vitro ADME.
Data set [4] has as its system CYP1A2. Description: In vitro enzyme activity / mRNA induction in human hepatocytes. The format is in vitro ADME.
The nature of data set [5]: Example 2 Part E: single- and multiple-dose PK of tucatinib and ONT-993. It counts as in vivo, human. To be noted: tucatinib 300 mg BID, Day 14 vs Day 8.
Data set [6] deals with T2, MATE1 (Homo sapiens, UniProt Q96FL8).
T2 sequence (Q96FL8 1-570): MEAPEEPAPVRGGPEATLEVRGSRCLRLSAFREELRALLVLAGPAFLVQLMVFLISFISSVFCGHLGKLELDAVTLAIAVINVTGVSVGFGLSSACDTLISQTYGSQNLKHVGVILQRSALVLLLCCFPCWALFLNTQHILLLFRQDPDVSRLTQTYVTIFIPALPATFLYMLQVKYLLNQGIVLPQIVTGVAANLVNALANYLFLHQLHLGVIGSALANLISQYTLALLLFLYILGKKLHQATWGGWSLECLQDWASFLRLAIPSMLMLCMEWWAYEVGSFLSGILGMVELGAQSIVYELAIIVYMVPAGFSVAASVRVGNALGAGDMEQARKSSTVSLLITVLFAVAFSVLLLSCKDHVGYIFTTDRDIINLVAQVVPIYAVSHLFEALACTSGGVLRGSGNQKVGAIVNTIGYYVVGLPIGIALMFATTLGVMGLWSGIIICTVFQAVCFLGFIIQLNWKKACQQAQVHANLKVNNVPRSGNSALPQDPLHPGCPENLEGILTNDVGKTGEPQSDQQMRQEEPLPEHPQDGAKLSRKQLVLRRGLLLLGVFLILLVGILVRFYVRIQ
Briefly: Inhibition of MATE1 mediated transport of creatinine in transfected MDCK-II cells (Example 3). It counts as in vitro ADME. Also on record: expressed in transfected cells; host or cells: MDCK-II. To be noted: probe substrate creatinine. The procedure: OAT2, OCT2, OCT3, MATE1, and MATE2-K are the renal transporters identified to transport creatinine.
For this study, MDCK-II were maintained in DMEM with low glucose and 10% FBS. Cells were seeded at 60K±10K cells/well on 96-well, transwell membrane plates approximately 24 hours before transfection. Transport assays were carried out approximately 48 hours after transfection. Cells were transfected and treated to express the transporter of interest or treated with a control vector. The transport of creatinine was determined by radiometric detection.
Net transporter mediated uptake of the substrate by each transporter was calculated as follows: Net Transporter Mediated Substrate Uptake (pmol/min/cm^2)=(Cellular accumulation in the presence of the transporter)−(Mean cellular accumulation in the absence of the transporter.
Percent inhibition was calculated as follows: Percent inhibition=100−(100*(transporter mediated uptake)with inhibition/(transporter mediated uptake)without inhibition)
The following equation was used to determine IC50 values of uptake assays: […]

Data set [7] can be described thus: Predicted hepatic metabolic stability across species. The format is in vitro ADME.
The nature of data set [8]: Example 1: renal function (iohexol aGFR, serum creatinine, urine albumin). It counts as in vivo, human.
The target in data set [9] is T2, MATE1. Briefly: In vitro inhibition of MATE1 transporter. It counts as in vitro ADME.
Data set [10] deals with P-glycoprotein (P-gp) (Homo sapiens, UniProt P08183). Briefly: P-gp substrate assessment and inhibition of P-gp-mediated efflux of digoxin. It counts as in vitro ADME.
Chain of P-glycoprotein (P-gp) (P08183 whole entry): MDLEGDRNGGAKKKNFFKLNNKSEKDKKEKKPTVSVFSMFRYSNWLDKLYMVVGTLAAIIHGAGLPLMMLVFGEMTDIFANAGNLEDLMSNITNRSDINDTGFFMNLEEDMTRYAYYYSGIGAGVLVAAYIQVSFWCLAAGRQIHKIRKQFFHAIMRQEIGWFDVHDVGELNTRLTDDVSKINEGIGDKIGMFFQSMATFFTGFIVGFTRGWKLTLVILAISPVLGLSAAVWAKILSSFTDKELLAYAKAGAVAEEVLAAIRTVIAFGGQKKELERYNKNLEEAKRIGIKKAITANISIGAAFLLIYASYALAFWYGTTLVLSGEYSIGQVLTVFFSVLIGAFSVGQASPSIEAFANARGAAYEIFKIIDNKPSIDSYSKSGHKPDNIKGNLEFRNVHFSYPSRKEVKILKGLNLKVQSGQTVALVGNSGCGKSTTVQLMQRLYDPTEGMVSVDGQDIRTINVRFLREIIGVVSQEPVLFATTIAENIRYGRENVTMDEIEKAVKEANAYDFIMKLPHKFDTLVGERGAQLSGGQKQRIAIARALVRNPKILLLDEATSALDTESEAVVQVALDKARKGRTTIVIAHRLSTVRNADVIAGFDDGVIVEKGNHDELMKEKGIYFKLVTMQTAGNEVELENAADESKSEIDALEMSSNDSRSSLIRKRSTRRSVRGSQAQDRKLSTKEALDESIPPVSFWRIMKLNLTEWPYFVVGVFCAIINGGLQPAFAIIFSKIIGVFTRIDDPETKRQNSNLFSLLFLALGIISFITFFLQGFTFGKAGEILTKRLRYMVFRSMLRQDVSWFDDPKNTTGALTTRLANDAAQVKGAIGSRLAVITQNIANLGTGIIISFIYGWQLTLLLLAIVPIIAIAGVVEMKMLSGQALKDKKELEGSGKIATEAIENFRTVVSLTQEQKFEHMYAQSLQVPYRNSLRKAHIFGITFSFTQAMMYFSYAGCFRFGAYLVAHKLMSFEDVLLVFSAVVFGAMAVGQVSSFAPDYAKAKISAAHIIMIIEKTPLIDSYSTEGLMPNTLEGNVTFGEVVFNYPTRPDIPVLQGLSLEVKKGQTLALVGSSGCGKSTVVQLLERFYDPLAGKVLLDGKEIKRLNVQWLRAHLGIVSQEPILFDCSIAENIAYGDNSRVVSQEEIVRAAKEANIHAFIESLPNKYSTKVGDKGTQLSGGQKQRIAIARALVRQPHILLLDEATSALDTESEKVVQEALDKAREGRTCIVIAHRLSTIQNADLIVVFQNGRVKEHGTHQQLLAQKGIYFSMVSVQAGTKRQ
Where [11] appears, read: following multiple doses of tucatinib.

Chain of MATE2K (Q86VL8 1-566 isoform Q86VL8-3): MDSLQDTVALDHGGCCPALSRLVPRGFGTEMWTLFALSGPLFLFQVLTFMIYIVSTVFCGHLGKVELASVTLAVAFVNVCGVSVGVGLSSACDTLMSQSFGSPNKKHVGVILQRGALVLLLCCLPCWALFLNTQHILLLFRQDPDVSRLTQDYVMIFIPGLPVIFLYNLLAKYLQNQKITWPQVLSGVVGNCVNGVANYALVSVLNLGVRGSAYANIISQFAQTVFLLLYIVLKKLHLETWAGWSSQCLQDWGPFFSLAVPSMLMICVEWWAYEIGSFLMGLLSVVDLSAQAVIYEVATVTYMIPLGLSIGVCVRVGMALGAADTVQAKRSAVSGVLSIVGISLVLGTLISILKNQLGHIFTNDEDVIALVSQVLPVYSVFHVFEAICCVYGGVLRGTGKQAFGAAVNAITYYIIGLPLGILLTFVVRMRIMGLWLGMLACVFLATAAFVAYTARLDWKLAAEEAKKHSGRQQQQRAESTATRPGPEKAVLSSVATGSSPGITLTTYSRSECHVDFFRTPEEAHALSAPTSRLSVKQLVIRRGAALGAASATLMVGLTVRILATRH

For the molecule `Cc1cc(Nc2ncnc3ccc(NC4=NC(C)(C)CO4)cc23)ccc1Oc1ccn2ncnc2c1` [tucatinib], the “Geometric LS mean ratio (90% CI), AUC0-∞” value in data set [1] is 0.520 (0.452, 0.597). Besides, the “Geometric LS mean ratio (90% CI), AUClast” value in data set [1] is 0.517 (0.449, 0.596). Also, the “Geometric LS mean ratio (90% CI), Cmax” value in data set [1] was 0.632 (0.531, 0.753). Also, the IC50 was 8980 nM in [2]; 140 nM in [3]; 85.5 ± 17.5 nM in data set [6]; 340 nM in data set [9]; 10000 to 30000 nM in data set [10]. Besides, the “Induction of in vitro enzyme activity or messenger ribonucleic acid, CYP1A2” value in data set [4] is listed as “did not induce”. Also, the “Rac (accumulation ratio) after multiple dosing” value in [5] amounted to 1.50. Moreover, the “Stability with respect to hepatic metabolism” value in data set [7] is “good-to-moderate stability”. Besides, in [8] (conclusion of Example 1), the Renal damage result is listed as “does not cause renal damage”. In addition, the “Change in mean serum creatinine” value in [8] (setting [11]) is on record as “increase”. Besides, the “Measures of renal function including aGFR as assessed by iohexol and urine albumin levels” value in [8] (setting [11]) was “not affected”. For the same molecule, the P-gp substrate status entry in data set [10] is recorded as “P-glycoprotein (P-gp) substrate”.
